Data: patent publication US20230227427A1, “IL-17A MODULATORS” (SANOFI, priority 2010, published 2023)

Target: T1, human recombinant IL-17A (Homo sapiens, UniProt Q16552)
T1 construct: purchased R&D Systems 7955-IL/CF
T1 sequence (Q16552 24-155): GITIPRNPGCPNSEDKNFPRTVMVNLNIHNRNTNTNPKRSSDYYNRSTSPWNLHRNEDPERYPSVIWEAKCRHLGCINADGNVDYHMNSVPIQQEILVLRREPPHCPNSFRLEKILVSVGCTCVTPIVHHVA
Test: IL-17A AlphaLISA assay (block binding of IL-17A to its receptor IL-17RA)
Settings: compounds pre-incubated with the IL-17A for 30 min (indicated by * in Table A); for IC50: read-out: AlphaLISA pIC50 (converted)
In short: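 Compounds pre-incubated 24 h at RT (30 min where flagged) with human IL-17A (7.5 nM stock) before IL-17RA/Fc (5 nM stock), 90 min. Read by AlphaLISA via anti-Fc acceptor and biotin anti-IL-17A/streptavidin donor beads, 680/615 nm. 4-parameter fit; DMSO and 6 μM reference inhibitor as controls; pIC50.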

Row | Compound | IC50 | AlphaLISA pIC50
1 | CCc1nocc1C(=O)N[C@H](C(=O)Nc1ccc(-c2c(C)noc2C)nc1)C1CCCCCC1 [Example 171, (S)—N-(1-cycloheptyl-2-((6-(3,5-dimethylisoxazol-4-yl)pyridin-3-yl)amino)-2-oxoethyl)-3-ethylisoxazole-4-carboxamide] | 79.4 nM | –
2 | Cc1noc(C)c1-c1ccc(NC(=O)[C@@H](NC(=O)c2ccnn2C)C2CCCCCC2)cn1 [Example 172, (S)—N-(1-cycloheptyl-2-((6-(3,5-dimethylisoxazol-4-yl)pyridin-3-yl)amino)-2-oxoethyl)-1-methyl-1H-pyrazole-5-carboxamide] | 200 nM | –
3 | Cn1nccc1C(=O)N[C@H](C(=O)Nc1ccc(-c2c(C3CC3)nnn2C)cn1)C1CCCCCC1 [Example 173, (S)—N-(1-cycloheptyl-2-((5-(4-cyclopropyl-1-methyl-1H-1,2,3-triazol-5-yl)pyridin-2-yl)amino)-2-oxoethyl)-1-methyl-1H-pyrazole-5-carboxamide] | 158 nM | –
4 | Cn1nccc1C(=O)N[C@H](C(=O)Nc1ccc(-c2c(Cl)cnn2C)cn1)C1CCCCCC1 [Example 174, (S)—N-(2-((5-(4-chloro-1-methyl-1H-pyrazol-5-yl)pyridin-2-yl)amino)-1-cycloheptyl-2-oxoethyl)-1-methyl-1H-pyrazole-5-carboxamide] | 158 nM | –
5 | CCc1nocc1C(=O)N[C@H](C(=O)Nc1ccc(-c2c(Cl)cnn2C)cn1)C1CCCCCC1 [Example 175, (S)—N-(2-((5-(4-chloro-1-methyl-1H-pyrazol-5-yl)pyridin-2-yl)amino)-1-cycloheptyl-2-oxoethyl)-3-ethylisoxazole-4-carboxamide] | 31.6 nM | –
6 | CCn1nccc1C(=O)N[C@H](C(=O)Nc1ccc(-c2c(Cl)cnn2C)cn1)C1CCCCCC1 [Example 176, (S)—N-(2-((5-(4-chloro-1-methyl-1H-pyrazol-5-yl)pyridin-2-yl)amino)-1-cycloheptyl-2-oxoethyl)-1-ethyl-1H-pyrazole-5-carboxamide] | 39.8 nM | –
7 | Cc1cnn(C)c1-c1ccc(NC(=O)[C@@H](NC(=O)c2ccnn2C)C2CCCCC2)nc1 [Example 177, (S)—N-(1-cyclohexyl-2-((5-(1,4-dimethyl-1H-pyrazol-5-yl)pyridin-2-yl)amino)-2-oxoethyl)-1-methyl-1H-pyrazole-5-carboxamide] | 200 nM | –
8 | CCc1nocc1C(=O)N[C@H](C(=O)Nc1ccc(-c2c(C)cnn2C)cn1)C1CCCCC1 [Example 178, (S)—N-(1-cyclohexyl-2-((5-(1,4-dimethyl-1H-pyrazol-5-yl)pyridin-2-yl)amino)-2-oxoethyl)-3-ethylisoxazole-4-carboxamide] | 79.4 nM | –
9 | Cc1cnn(C)c1-c1ncc(NC(=O)[C@@H](NC(=O)c2ccnn2C)[C@H]2CC[C@H](C)CC2)cc1F [Example 179, N—((S)-2-((6-(1,4-dimethyl-1H-pyrazol-5-yl)-5-fluoropyridin-3-yl)amino)-1-((1r,4S)-4-methylcyclohexyl)-2-oxoethyl)-1-methyl-1H-pyrazole-5-carboxamide] | 501 nM | –
10 | CCc1nocc1C(=O)N[C@H](C(=O)Nc1cnc(-c2c(C)cnn2C)c(F)c1)[C@H]1CC[C@H](C)CC1 [Example 180, N—((S)-2-((6-(1,4-dimethyl-1H-pyrazol-5-yl)-5-fluoropyridin-3-yl)amino)-1-((1r,4S)-4-methylcyclohexyl)-2-oxoethyl)-3-ethylisoxazole-4-carboxamide] | 158 nM | –
11 | Cc1cnn(C)c1-c1ccc(NC(=O)[C@@H](NC(=O)c2conc2C)C2CCCCC2)nc1 [Example 181, (S)—N-(1-cyclohexyl-2-((5-(1,4-dimethyl-1H-pyrazol-5-yl)pyridin-2-yl)amino)-2-oxoethyl)-3-methylisoxazole-4-carboxamide] | 158 nM | –
12 | Cn1nccc1C(=O)N[C@H](C(=O)Nc1ccc(-c2c(CO)cnn2C)cn1)C1CCCCCC1 [Example 182, (S)—N-(1-cycloheptyl-2-((5-(4-(hydroxymethyl)-1-methyl-1H-pyrazol-5-yl)pyridin-2-yl)amino)-2-oxoethyl)-1-methyl-1H-pyrazole-5-carboxamide] | 31.6 nM | –
13 | Cc1cnn(C)c1-c1ccc(NC(=O)C(NC(=O)c2ccnn2C)C2CC3CCC2C3)nc1 (stereo not drawn) [Example 184, N-(1-(bicyclo[2.2.1]heptan-2-yl)-2-((5-(1,4-dimethyl-1H-pyrazol-5-yl)pyridin-2-yl)amino)-2-oxoethyl)-1-methyl-1H-pyrazole-5-carboxamide] | 251 nM | –
14 | Cc1cnn(C)c1-c1ccc(NC(=O)C(NC(=O)c2ccnn2C)[C@H]2CC[C@H](C(F)(F)F)CC2)nc1 (stereo partly drawn) [Example 185, N-(2-((5-(1,4-dimethyl-1H-pyrazol-5-yl)pyridin-2-yl)amino)-2-oxo-1-((1r,4r)-4-(trifluoromethyl)cyclohexyl)ethyl)-1-methyl-1H-pyrazole-5-carboxamide] | 631 nM | –
15 | CCn1nccc1C(=O)NC(C(=O)Nc1ccc(-c2c(C)cnn2C)cn1)[C@H]1CC[C@H](C(F)(F)F)CC1 (stereo partly drawn) [Example 186, N-(2-((5-(1,4-dimethyl-1H-pyrazol-5-yl)pyridin-2-yl)amino)-2-oxo-1-((1r,4r)-4-(trifluoromethyl)cyclohexyl)ethyl)-1-ethyl-1H-pyrazole-5-carboxamide] | 398 nM | –
16 | CCc1nocc1C(=O)NC(C(=O)Nc1ccc(-c2c(C)cnn2C)cn1)[C@H]1CC[C@H](C(F)(F)F)CC1 (stereo partly drawn) [Example 187, N-(2-((5-(1,4-dimethyl-1H-pyrazol-5-yl)pyridin-2-yl)amino)-2-oxo-1-((1r,4r)-4-(trifluoromethyl)cyclohexyl)ethyl)-3-ethylisoxazole-4-carboxamide] | 398 nM | –
17 | CCc1nocc1C(=O)N[C@H](C(=O)Nc1ccc(-c2c(C)nnn2C)cn1)[C@H]1CC[C@H](C)CC1 [Example 188, N—((S)-2-((5-(1,4-dimethyl-1H-1,2,3-triazol-5-yl)pyridin-2-yl)amino)-1-((1r,4S)-4-methylcyclohexyl)-2-oxoethyl)-3-ethylisoxazole-4-carboxamide] | 100 nM | –
18 | CCn1nccc1C(=O)N[C@H](C(=O)Nc1cnc(-c2c(C)cnn2C)c(F)c1)[C@H]1CC[C@H](C)CC1 [Example 189, N—((S)-2-((6-(1,4-dimethyl-1H-pyrazol-5-yl)-5-fluoropyridin-3-yl)amino)-1-((1r,4S)-4-methylcyclohexyl)-2-oxoethyl)-1-ethyl-1H-pyrazole-5-carboxamide] | – | 6.8*
19 | Cc1nnn(CC(=O)N(C)C)c1-c1ccc(NC(=O)[C@@H](NC(=O)c2ccnn2C)C2CCCCCC2)nc1 [Example 190, (S)—N-(1-cycloheptyl-2-((5-(1-(2-(dimethylamino)-2-oxoethyl)-4-methyl-1H-1,2,3-triazol-5-yl)pyridin-2-yl)amino)-2-oxoethyl)-1-methyl-1H-pyrazole-5-carboxamide] | 794 nM | –
20 | Cc1cnn(C)c1-c1ccc(NC(=O)[C@@H](NC(=O)c2conc2C(C)C)[C@H]2CC[C@H](C)CC2)nc1 [Example 191, N—((S)-2-((5-(1,4-dimethyl-1H-pyrazol-5-yl)pyridin-2-yl)amino)-1-((1r,4S)-4-methylcyclohexyl)-2-oxoethyl)-3-isopropylisoxazole-4-carboxamide] | 39.8 nM | –
21 | Cc1cnn(C)c1-c1ccc(NC(=O)[C@@H](NC(=O)c2conc2C(C)(C)C)[C@H]2CC[C@H](C)CC2)nc1 [Example 192, 3-(tert-butyl)-N—((S)-2-((5-(1,4-dimethyl-1H-pyrazol-5-yl)pyridin-2-yl)amino)-1-((1r,4S)-4-methylcyclohexyl)-2-oxoethyl)isoxazole-4-carboxamide] | 200 nM | –
22 | Cn1nccc1C(=O)N[C@H](C(=O)Nc1ccc(-c2c(C#N)cnn2C)cn1)[C@H]1CC[C@H](C)CC1 [Example 193, N—((S)-2-((5-(4-cyano-1-methyl-1H-pyrazol-5-yl)pyridin-2-yl)amino)-1-((1r,4S)-4-methylcyclohexyl)-2-oxoethyl)-1-methyl-1H-pyrazole-5-carboxamide] | 251 nM | –
23 | Cc1cnn(C)c1-c1ccc(NC(=O)[C@@H](NC(=O)c2conc2C(F)(F)F)[C@H]2CC[C@H](C)CC2)nc1 [Example 194, N—((S)-2-((5-(1,4-dimethyl-1H-pyrazol-5-yl)pyridin-2-yl)amino)-1-((1r,4S)-4-methylcyclohexyl)-2-oxoethyl)-3-(trifluoromethyl)isoxazole-4-carboxamide] | 158 nM | –
24 | Cc1nn(C)c(-c2ccc(NC(=O)[C@@H](NC(=O)c3ccnn3C)C3CCCCCC3)nc2)c1C [Example 195, (S)—N-(1-cycloheptyl-2-oxo-2-((5-(1,3,4-trimethyl-1H-pyrazol-5-yl)pyridin-2-yl)amino)ethyl)-1-methyl-1H-pyrazole-5-carboxamide] | 501 nM | –
25 | Cc1nsc(C)c1-c1ccc(NC(=O)[C@@H](NC(=O)c2ccnn2C)[C@H]2CC[C@H](C)CC2)nc1 [Example 196, N—((S)-2-((5-(3,5-dimethylisothiazol-4-yl)pyridin-2-yl)amino)-1-((1r,4S)-4-methylcyclohexyl)-2-oxoethyl)-1-methyl-1H-pyrazole-5-carboxamide] | 251 nM | –
26 | CCn1nccc1C(=O)N[C@H](C(=O)Nc1ccc(-c2c(CO)cnn2C)cn1)C1CCCCCC1 [Example 198, (S)—N-(1-cycloheptyl-2-((5-(4-(hydroxymethyl)-1-methyl-1H-pyrazol-5-yl)pyridin-2-yl)amino)-2-oxoethyl)-1-ethyl-1H-pyrazole-5-carboxamide] | 200 nM | –
27 | CCn1nccc1C(=O)N[C@H](C(=O)Nc1ccc(-c2c(Cl)cnn2C)cn1)[C@H]1CC[C@H](C)CC1 [Example 199, N—((S)-2-((5-(4-chloro-1-methyl-1H-pyrazol-5-yl)pyridin-2-yl)amino)-1-((1r,4S)-4-methylcyclohexyl)-2-oxoethyl)-1-ethyl-1H-pyrazole-5-carboxamide] | 100 nM | –
